Source: US11661426B2, “Imidazole-containing inhibitors of ALK2 kinase” (BioCryst Pharmaceuticals, Inc., priority 2017, dated 2023)

target: ALK2 (Homo sapiens (Human), UniProt Q04771); assay: ALK2 inhibition, LanthaScreen Eu Kinase Binding Assay (ThermoFisher Scientific / Life Technologies); conditions: read-out: Measured Ki (IC50) Value for Compounds: IC50
Method: Biochemical assays to measure the inhibitory effects of the compounds were performed by ThermoFisher Scientific (Life Technologies). ALK2 inhibition was tested using LanthaScreen™ Eu Kinase Binding Assay screening protocol.

Sequence of ALK2 (Q04771 21-509): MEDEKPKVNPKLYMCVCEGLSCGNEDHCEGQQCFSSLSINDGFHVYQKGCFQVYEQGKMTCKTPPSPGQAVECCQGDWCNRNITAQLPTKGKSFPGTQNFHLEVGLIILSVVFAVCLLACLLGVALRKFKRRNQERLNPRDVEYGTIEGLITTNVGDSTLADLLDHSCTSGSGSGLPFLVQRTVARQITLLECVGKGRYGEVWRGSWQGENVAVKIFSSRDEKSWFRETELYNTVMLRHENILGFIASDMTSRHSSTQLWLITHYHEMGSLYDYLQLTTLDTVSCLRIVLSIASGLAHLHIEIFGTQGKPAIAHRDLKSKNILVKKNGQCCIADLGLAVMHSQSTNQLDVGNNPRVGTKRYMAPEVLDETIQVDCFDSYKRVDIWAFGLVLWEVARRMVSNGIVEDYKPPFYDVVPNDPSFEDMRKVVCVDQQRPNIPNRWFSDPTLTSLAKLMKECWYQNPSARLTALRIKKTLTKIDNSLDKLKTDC

Compound | IC50
COc1cc(-n2cnc(Nc3nc(N4CCC[C@@H]4CO)nc4cc(N5CCC[C@@H]5CO)ccc34)c2)cc(OC)c1OC [Compound 306a, ((2R,2′R)-1,1′-(4-((1-(3,4,5-trimethoxyphenyl)-1H-imidazol-4-yl)amino)quinazoline-2,7-diyl)bis(pyrrolidine-2,1-diyl))dimethanol] | < 0.1 µM
COc1cc(-n2cnc(Nc3nc(N4CCC[C@@H]4CO)c4cc[nH]c4n3)c2)cc(OC)c1OC [Compound 307c, (R)-(1-(2-((1-(3,4,5-trimethoxyphenyl)-1H-imidazol-4-yl)amino)-7H-pyrrolo[2,3-d]pyrimidin-4-yl)pyrrolidin-2-yl)methanol] | < 0.1 µM
COc1cc(-n2cnc(Nc3nc(N4CCC[C@@H]4CO)nc4[nH]ccc34)c2)cc(OC)c1OC [Compound 308b, (R)-(1-(4-((1-(3,4,5-trimethoxyphenyl)-1H-imidazol-4-yl)amino)-7H-pyrrolo[2,3-d]pyrimidin-2-yl)pyrrolidin-2-yl)methanol] | < 0.1 µM
COc1cc(-n2cnc(Nc3nc(N4CCC[C@@H]4CO)c4ccsc4n3)c2)cc(OC)c1OC [Compound 309b, (R)-(1-(2-((1-(3,4,5-trimethoxyphenyl)-1H-imidazol-4-yl)amino)thieno[2,3-d]pyrimidin-4-yl)pyrrolidin-2-yl)methanol] | < 0.1 µM
COc1cc(-n2cnc(Nc3nc(N4CCC[C@@H]4CO)c4sccc4n3)c2)cc(OC)c1OC [Compound 310b, (R)-(1-(2-((1-(3,4,5-trimethoxyphenyl)-1H-imidazol-4-yl)amino)thieno[3,2-d]pyrimidin-4-yl)pyrrolidin-2-yl)methanol] | < 0.1 µM
COc1cc(-n2cnc(Nc3nc(N4CCC[C@H]4C(N)=O)nc4c3COC4)c2)cc(OC)c1OC [Compound 311a, (S)-1-(4-((1-(3,4,5-trimethoxyphenyl)-1H-imidazol-4-yl)amino)-5,7-dihydrofuro[3,4-d]pyrimidin-2-yl)pyrrolidine-2-carboxamide] | < 0.1 µM
COc1cc(-n2cnc(Nc3nc(N4CCC[C@@H]4C(N)=O)nc4c3COC4)c2)cc(OC)c1OC [Compound 312a, (R)-1-(4-((1-(3,4,5-trimethoxyphenyl)-1H-imidazol-4-yl)amino)-5,7-dihydrofuro[3,4-d]pyrimidin-2-yl)pyrrolidine-2-carboxamide] | < 0.1 µM
COc1cc(-n2cnc(Nc3nc(N4CCC[C@@H]4C(N)=O)nc4c3CCCC4)c2)cc(OC)c1OC [Compound 313a, (R)-1-(4-((1-(3,4,5-trimethoxyphenyl)-1H-imidazol-4-yl)amino)-5,6,7,8-tetrahydroquinazolin-2-yl)pyrrolidine-2-carboxamide] | < 0.1 µM
COc1cc(-n2cnc(Nc3nc(N4CCC[C@@H]4C(N)=O)nc4[nH]ccc34)c2)cc(OC)c1OC [Compound 314b, (R)-1-(4-((1-(3,4,5-trimethoxyphenyl)-1H-imidazol-4-yl)amino)-7H-pyrrolo[2,3-d]pyrimidin-2-yl)pyrrolidine-2-carboxamide] | < 0.1 µM
COc1cc(-n2cnc(Nc3nc(N4CCC[C@H]4C(N)=O)nc4cc(CN5CCCCC5)oc34)c2)cc(OC)c1OC [Compound 315f, (S)-1-(6-(piperidin-1-ylmethyl)-4-((1-(3,4,5-trimethoxyphenyl)-1H-imidazol-4-yl)amino)furo[3,2-d]pyrimidin-2-yl)pyrrolidine-2-carboxamide] | < 0.1 µM
COc1cc(-n2cnc(Nc3nc(N4CCC[C@H]4CO)nc4cnn(C)c34)c2)cc(OC)c1OC [Compound 316a, (S)-(1-(1-methyl-7-((1-(3,4,5-trimethoxyphenyl)-1H-imidazol-4-yl)amino)-1H-pyrazolo[4,3-d]pyrimidin-5-yl)pyrrolidin-2-yl)methanol] | 0.1 to 1 µM
COc1cc(-n2cnc(Nc3nc(N4CCC[C@@H]4CO)nc4scnc34)c2)cc(OC)c1OC [Compound 317a, (R)-(1-(7-((1-(3,4,5-trimethoxyphenyl)-1H-imidazol-4-yl)amino)thiazolo[5,4-d]pyrimidin-5-yl)pyrrolidin-2-yl)methanol] | < 0.1 µM
COc1cc(-n2cnc(Nc3nc(N4CCC[C@@H]4C(N)=O)nc4scnc34)c2)cc(OC)c1OC [Compound 318a, (R)-1-(7-((1-(3,4,5-trimethoxyphenyl)-1H-imidazol-4-yl)amino)thiazolo[5,4-d]pyrimidin-5-yl)pyrrolidine-2-carboxamide] | < 0.1 µM
CCOc1ccc(-n2cnc(Nc3nc(N4CCC[C@H]4CO)nn4cccc34)c2)cc1OCC [Compound 319b, (S)-(1-(4-((1-(3,4-diethoxyphenyl)-1H-imidazol-4-yl)amino)pyrrolo[2,1-f][1,2,4]triazin-2-yl)pyrrolidin-2-yl)methanol] | 0.1 to 1 µM
COc1ccc(-n2cnc(Nc3nc(N4CCC[C@H]4CO)nn4cccc34)c2)cc1C(F)(F)F [Compound 320b, (S)-(1-(4-((1-(4-methoxy-3-(trifluoromethyl)phenyl)-1H-imidazol-4-yl)amino)pyrrolo[2,1-f][1,2,4]triazin-2-yl)pyrrolidin-2-yl)methanol] | < 0.1 µM

Further lines, results first:

IC50 | Compound
< 0.1 µM | COc1cc(-n2cnc(Nc3nc(N4CCC[C@@H]4C(N)=O)nc4sccc34)c2)cc(OC)c1OC [Compound 298a, (R)-1-(4-((1-(3,4,5-trimethoxyphenyl)-1H-imidazol-4-yl)amino)thieno[2,3-d]pyrimidin-2-yl)pyrrolidine-2-carboxamide]
< 0.1 µM | COc1cc(-n2cnc(Nc3nc(N4CCC[C@@H]4C(N)=O)nc4ccsc34)c2)cc(OC)c1OC [Compound 299a, (R)-1-(4-((1-(3,4,5-trimethoxyphenyl)-1H-imidazol-4-yl)amino)thieno[3,2-d]pyrimidin-2-yl)pyrrolidine-2-carboxamide]
< 0.1 µM | COc1cc(-n2cnc(Nc3nc(N4CCC[C@@H]4C(N)=O)nc4ccoc34)c2)cc(OC)c1OC [Compound 300a, (R)-1-(4-((1-(3,4,5-trimethoxyphenyl)-1H-imidazol-4-yl)amino)furo[3,2-d]pyrimidin-2-yl)pyrrolidine-2-carboxamide]
< 0.1 µM | COc1cc(-n2cnc(Nc3nc(N4CCC[C@@H]4CO)c4occc4n3)c2)cc(OC)c1OC [Compound 301b, (R)-(1-(2-((1-(3,4,5-trimethoxyphenyl)-1H-imidazol-4-yl)amino)furo[3,2-d]pyrimidin-4-yl)pyrrolidin-2-yl)methanol]
< 0.1 µM | COc1cc(-n2cnc(Nc3nc(N4CCC[C@H]4C(N)=O)nc4c3CCCC4)c2)cc(OC)c1OC [Compound 302a, (S)-1-(4-((1-(3,4,5-trimethoxyphenyl)-1H-imidazol-4-yl)amino)-5,6,7,8-tetrahydroquinazolin-2-yl)pyrrolidine-2-carboxamide]
< 0.1 µM | COc1cc(-n2cnc(Nc3nc(N4CCC[C@@H]4CO)nc4ccsc34)c2)cc(OC)c1OC [Compound 303a, (R)-(1-(4-((1-(3,4,5-trimethoxyphenyl)-1H-imidazol-4-yl)amino)thieno[3,2-d]pyrimidin-2-yl)pyrrolidin-2-yl)methanol]
< 0.1 µM | COc1cc(-n2cnc(Nc3nc(N4CCC[C@@H]4CO)nc4ccccc34)c2)cc(OC)c1OC [Compound 304a, (R)-(1-(4-((1-(3,4,5-trimethoxyphenyl)-1H-imidazol-4-yl)amino)quinazolin-2-yl)pyrrolidin-2-yl)methanol]
< 0.1 µM | COc1cc(-n2cnc(Nc3nc(N4CCC[C@@H]4C(N)=O)nc4ccccc34)c2)cc(OC)c1OC [Compound 305a, (R)-1-(4-((1-(3,4,5-trimethoxyphenyl)-1H-imidazol-4-yl)amino)quinazolin-2-yl)pyrrolidine-2-carboxamide]
